Measured values taken from patent US5536719A, “Benzothiadiazine compound” (Adir et Compagnie, priority 1994, dated 1996).

Columns and labels:
[1] = tested on: AMPA receptor (rat cortex mRNA expressed in Xenopus oocytes); assay: excitatory currents induced by AMPA in Xenopus oocytes (voltage-clamp); type: cell-based, rat (male Wistar) receptors expressed in Xenopus oocytes; conditions: for EC2X (concentration which doubles the intensity of the current induced by AMPA alone) / EC5X (concentration which increases five-fold the intensity of the current induced by AMPA alone): Xenopus oocytes, rat cortex mRNA, agonist AMPA (30 mM [sic])
Description: Study of the excitatory currents induced by AMPA in Xenopus oocytes mRNAs are prepared from male Wistar rat cerebral cortex by the guanidium thiocyanate/phenol/chloroform method. The poly(A^+) mRNAs are isolated by chromatography on oligo-dT cellulose and injected at an amount of 50 ng per oocyte. The oocytes are left to incubate for 2 to 3 days at 18° C. in order to allow expression of the receptors, and are then stored at 8°-10° C. The electrophysiological recording is performed in a plexiglass® chamber at 20°-24° C. in OR2 medium (J. Exp. Zool., 1973, 184, 321-334) by the "voltage-clamp" method with 2 electrodes, a 3rd electrode placed in the bath serving as reference. All the compounds are applied via the incubation medium and the electric current is measured at the end of the period of application. The AMPA is used at a concentration of […]. The concentration which doubles (EC2X) or which increases five-fold (EC5X) the intensity of the current induced by AMPA alone (50 to 100 nA) is determined for each compound studied.

[2] = tested on: AMPA receptors of neuronal cells; conditions: Journal of Neurochemistry, 1992, 58, 1199-1204; cited from earlier work
kainate (KA) = assay: currents induced by kainate (KA) in Xenopus oocytes (selectivity); type: cell-based, rat (male Wistar) receptors expressed in Xenopus oocytes
NMDA = assay: currents induced by NMDA in Xenopus oocytes (selectivity); type: cell-based, rat (male Wistar) receptors expressed in Xenopus oocytes
[3] = tested on: slice of hippocampus (dentate gyrus EPSP); assay: excitatory postsynaptic potentials (EPSP) induced by electrical stimulation on a slice of hippocampus; type: cell-based, male Wistar rat; conditions: compared with reference compounds, racemic mixture and R isomer
Description: Study of the synaptic excitatory potentials induced by electrical stimulation on a slice of hippocampus
Transverse slices of hippocampus ([…]) from a male Wistar rat are prepared using a "tissue chopper" and then incubated for 45 minutes in calcium-free medium containing 10 mM Mg^++. They are then stabilized in Krebs adjusted to pH 7.35 and oxygenated with O2 /CO2 (95%/5%) at room temperature.
The slices are submerged at 35° C. and the excitatory postsynaptic potentials (EPSP) are recorded in the dendritic field of the […] of the dentate gyms during stimulation ([…]) every 30 seconds of the perforating route via a tungsten bipolar electrode.
The EPSPs are acquired and analyzed by means of an A-D converter, a TL-1 interface and "pCLAMP" software.
The amplitude and duration of the EPSPs are evaluated on the negative wave relative to the base current.
The compounds are applied for 10 to 20 minutes in the superfusion bath containing MgSO4 (1 mM) in order to block the activation of the NMDA receptors. The concentration increasing the amplitude of the EPSP by 50% (A50) is determined for each compound.

[4] = Il Farmaco, Ed. Sc., 1978, 33, 713-720; cited from earlier work

SMILES	EC2X (concentration which doubles the intensity of the current induced by AMPA alone) [1]	EC5X (concentration which increases five-fold the intensity of the current induced by AMPA alone) [1]	further results
O=S1(=O)N[C@@H]2CCCN2c2ccccc21 [R isomer]	300 µM	> 1000 µM	
COc1ccc(C(=O)N2CCCC2=O)cc1 [Aniracetam, reference compound]	1300 µM	5000 µM	modulation of AMPA receptors of neuronal cells [2]: positively modulating the AMPA receptors of neuronal cells
O=S1(=O)N[C@H]2CCCN2c2ccccc21 [Example 1, (3aS)-5,5-Dioxo-2,3,3a,4-tetrahydro-1H-pyrrolo[2,1-c][1,2,4]benzothiadiazine]	35 µM	70 µM	potentiation of the excitatory effects of AMPA ([1]; compared with reference compounds, racemic mixture and R isomer): very strongly potentiates the excitatory effects of AMPA; EC2X, AMPA ([1]; selectivity table, agonist AMPA): 35 µM; potentiation of the current (KA agonist) (kainate (KA)): no potentiation of the current is observed; EC2X, KA (kainate (KA); selectivity table, agonist kainate (KA)): > 300 µM; potentiation of the current (NMDA agonist) (NMDA): no potentiation of the current is observed; EC2X, NMDA (NMDA; selectivity table, agonist NMDA): > 300 µM; increase of the amplitude of the EPSP [3]: increases the amplitude of the EPSP at lower doses than the reference compounds, the racemic mixture or the R isomer
O=S1(=O)NC2CCCN2c2ccccc21 (racemic) [Racemic mixture, 5,5-Dioxo-2,3,3a,4-tetrahydro-1H-pyrrolo[2,1-c]-[1,2,4]benzothiadiazine, reference compound]	60 µM	160 µM	hypotensive and bradycardiac activities [4]: having hypotensive and bradycardiac activities
CC1=NS(=O)(=O)c2cc(Cl)ccc2N1 [Diazoxide, reference compound]	400 µM	1000 µM	
